Assays:
Type in all cases: cell-based
[1] = test system: PI-resistant HIV-1 strain 11800; experiment: microbe, parasite or virus in culture; conditions: PI-resistant 11800, PBMCs, 10-fold serial dilution; read-out: EC50
Text: (§1) The Tzm-bl-derived dual Tat reporter; TZM-bl/Tat/Rluc (bl-DTR) cells were established from TZM-bl cells using two Dox-inducible lentiviral expression cassettes cloned with Flag-tagged Tat86 and the R-Luc gene, as described in our previous study ([11]). TZM-bl, A3.01, J1.1, and J-Lat 6.3 cells as well as the HIV-1 molecular clone pNL4-3, pNL(AD8), ARV-resistant HIV-1 strains, and HIV-1NL43-IRES-eGFP (pBR43IeG-nef^+, gifted by Dr. Frank Kirchhoff) ([52]) were provided by the National Institute of Health HIV Reagent Program (NIH, Bethesda, MD, USA). HeLa (CCL-2) and 293T (CRL-3216) cell lines were purchased from the American Type Culture Collection (ATCC, Manassas, VA, USA). The bl-DTR, TZM-bl, HeLa, and 293T cells were cultured in Dulbecco’s modified Eagle’s medium supplemented with 1% penicillin–streptomycin and 10% (vol/vol) heat-inactivated fetal bovine serum (all from Gibco-BRL, Gaithersburg, MD, USA), and 1 µg/mL of puromycin and 200 µg/mL of zeocin were additionally supplemented for the bl-DTR cells. PBMCs were purchased from AllCells (Alameda, CA, USA) and cultured as previously described ([12]). The information on ARV-resistant HIV-1 strains was described in previous reports as follows: NNRTI-resistant 12241 and 12243 ([53]); NRTI-resistant 7396, 7406, and 7407 ([54]); INSTI-resistant 11847 and 11849 ([55], [56]); and PI-resistant 11800 and 11803 ([57]). Each molecular HIV-1 clone was transfected to 293T cells, as previously described ([58]), to obtain infectious HIV-1 particles. Virus-containing cell culture supernatants were collected 3 days after transfection, and filtered through a 0.45-µm membrane filter (Millipore Sigma, Burlington, MA, USA) to remove cell debris. The viral titration was performed as described previously ([59]) with some minor modifications. In brief, 1 × 10^4 TZM-bl cells seeded in 96-well plates were infected with 200 µL of virus-containing medium diluted serially twofold. The incubation was for 2 days and the experiment was performed in triplicate; the infection time minimized the virus spread ([59]). The titration of the infectious viral particles was performed with a ß-Gal staining assay using the ßeta-Galactosidase Staining Kit (Mirus Bio, Madison, WI, USA) following the manufacturer’s protocols. In brief, the infected cells were washed with phosphate-buffered saline (PBS) and fixed using a Cell Fixative Working solution. The cells were washed with PBS and stained using the Cell Staining Working Solution containing X-gal. The infected blue-colored cells were counted under a microscope (100× magnification). The infectious virus titer was determined as a mean value of blue-colored cells count × dilution factor and used for determining the multiplicity of infection (MOI) in each infection experiment.
(§2) The inhibitory effects of the compounds on viral replication were determined with some minor modifications, as previously described ([12], [62]). […] PBMCs (4 × 10^5) pre-activated with PHA-M for 3 days were washed with fresh media to remove excess PHA-M and subsequently infected with HIV-1NL4-3 or HIV-1AD8 or PIs-resistant HIV-1 strains as A3.01 infection. After infection, the infectious media were replaced with fresh media supplemented with international 10 units (IU)/mL of IL-2 and the indicated compounds. At 72 h after infection, the inhibitory effect of the compounds on viral replication was determined by measuring the p24 amount, an HIV capsid protein, using an HIV-1 p24 […] kit (PerkinElmer, Waltham, MA, USA). Cell viability was determined as described above. The inhibitory effects on provirus reversing in J1.1 and J-Lat 6.3 cells were determined as previously described ([12], [41], [63]) with some minor modifications.

[2] = test system: PI-resistant HIV-1 strain 11803; experiment: microbe, parasite or virus in culture; conditions: PI-resistant 11803, PBMCs, 10-fold serial dilution; read-out: EC50
Text: as §1, §2

[3] = test system: HIV-1NL4-3; experiment: HIV-1 replication in PBMCs (p24 […]); conditions: Table S1, WT virus, 10-fold serial dilution, read-out: EC50
Experimental: (§3) The p24 level from the cell supernatant was subsequently determined using a p24 […] kit (PerkinElmer). In parallel, the cell viability was determined without viral infection because of the viral cytopathic effect. […] In parallel, cell viability was determined. The data (A and B) are presented as the mean ± SD (n = 3). (C) PBMCs (4 × 10^5) infected with HIV-AD8 at an MOI of 0.1 were treated with 1.5 µM of the compounds or ARVs for 3 days. The levels of p24 and cell viability were subsequently determined. (D) J1.1 cells were cultured with the compounds ([…]) under 50 ng/mL phorbol myristate acetate (PMA) treatment for 2 days. The level of p24 was subsequently determined. (E) J-Lat 6.3 cells were treated with the compounds (1.5 µM) under 1 µg/mL of PMA for 2 days. The GFP-positive cell population was analyzed using flow cytometry. The data are represented as a value relative to the DMSO-treated vehicle (D) and a percent of the GFP^+ cell population (E) as mean ± SD (n = 3).
as §2, with “modifications. Briefly, 5 × 10^4 persistently HIV-1-infected J1.1 or J-Lat 6.3 cells were cultured in either the presence or absence of the compounds at a final concentration of 1.5 µM and treated with PMA (50 ng/mL for J1.1 cells, 1 µg/mL for J-Lat 6.3 cells). Two days after treatment, the levels of viral production were determined using p24 […] for J1.1 cells and flow cytometry analysis for GFP-expressing J-Lat 6.3 cells.” for “modifications.”

[4] = test system: HIV-1NL4-3; experiment: HIV-1 replication in A3.01 cells (p24 […]); conditions: fivefold serial dilutions, 3 days
Experimental: as §3
as §2, with “modifications. Briefly, 5 × 10^4 persistently HIV-1-infected J1.1 or J-Lat 6.3 cells were cultured in either the presence or absence of the compounds at a final concentration of 1.5 µM and treated with PMA (50 ng/mL for J1.1 cells, 1 µg/mL for J-Lat 6.3 cells). Two days after treatment, the levels of viral production were determined using p24 […] for J1.1 cells and flow cytometry analysis for GFP-expressing J-Lat 6.3 cells.” for “modifications.”

[5] = test system: HIV-1NL4-3 IRES-eGFP-nef+; experiment: eGFP-encoding HIV-1 infection of TZM-bl cells; conditions: 9, 10, 13 1.5 μM, 20, 21, 22 4 μM, seliciclib 10 µM, triptolide 5 nM, DTG 2 nM, EFV 2 nM, 2 days
Experimental: Fig 4 (A) Comparison of the chemical structures between prominent derivatives (9, 10, and 13) and non-functional derivatives (20, 21 and 22). (B) bl-DTR cells were treated with serial dilutions of each compound upon Dox for 24 h. The activities of F-Luc and R-Luc were determined using the Dual-Glo -Luciferase assay system. (C) TZM-bl cells were infected with the HIV-1NL4-3 strain at an MOI of 1 upon treatment of compounds. At 48 h after infection, the viral infectivity and cell viability were determined as described above (Fig. 1). (D) TZM-bl cells were infected with HIV-1NL4-3 IRES-eGFP virus along with the compound treatment. Two days later, GFP-expressing cells were observed by fluorescence microscopy (100× magnification). […] At 48 h after infection, the β-gal activity indicating viral infectivity was determined using the β-gal Enzyme Assay kit. F-Luc activity and cell viability were determined as described above (Fig. 4C). (C and E) The dose-response curves show the relative activity compared with that of the DMSO vehicle (mean ± SD; n = 3).

[6] = test system: HIV-1 transcripts; experiment: RNA-seq of HIV-1 transcripts in infected TZM-bl cells; conditions: HIV-1NL4-3 MOI 1, 1.5 µM, 2 days
Experimental: At 48 h after infection, the total RNA was extracted using the Maxwell RSC simplyRNA Cells Kit (Promega) according to the manufacturer’s instructions. RNA integrity was evaluated as RNA integrity number >6 using the Agilent 2100 Bio-analyzer (Agilent Technologies, Santa Clara, CA, USA). The cDNA libraries were constructed using TruSeq Stranded mRNA Sample Preparation Kit (Illumina, San Diego, CA, USA) according to the manufacturer’s instructions. Subsequently, these cDNA libraries were sequenced on the Illumina sequencing platform (NovaSeq6000; Illumina) and 150 bp paired-end reads were generated. Trimmomatic (v.0.32) was used to eliminate low-quality reads and adapter sequences from the sequencing data ([64]). Subsequently, the filtered reads were aligned to the HIV-1 genome (accession: AF324493.2) using STAR (v.2.3.0) ([65]). RT-qPCR analyses were performed as previously described ([66]) with some minor modifications. […] After infection, the infected cells were treated with 1.5 µM of the compounds. Forty-eight hours after treatment, the viral mRNA was isolated, converted to cDNA, and quantified through RT-qPCR on a 7500 Real-Time PCR System (Applied Biosystems) using the Power SYBR Green PCR Master Mix (Applied Biosystems). The comparative cycle threshold (Ct) method was used to analyze relative changes (Δ) in gene expression. The ΔCt values were determined using a 7500 Real-Time PCR System Software (Applied Biosystems) normalizing with gapdh, and the gene expression was calculated using the ΔΔCt-method. The primers used in this assay are the following: gag forward, 5′-[…]-3′, gag reverse, 5′-[…]-3′; gapdh forward, 5′-[…]-3′, gapdh reverse, 5′-[…]-3′.

Row | SMILES | EC50 [1] | EC50 [2] | EC50 [3] | inhibition of viral replication (in words) [4] | inhibition of viral-expressed eGFP signal [5] | read counts of transcripts mapped to the HIV-1 genome [6]
1 | Cc1c(O)cccc1C(=O)N[C@@H](CSc1ccccc1)[C@H](O)CN1C[C@H]2CCCC[C@H]2C[C@H]1C(=O)NC(C)(C)C [NFV, nelfiravir] | 420 ± 20 nM | 1640 ± 220 nM | < 1 nM | – | – | –
2 | CC(C)(C)NC(=O)[C@@H]1C[C@@H]2CCCC[C@@H]2CN1C[C@@H](O)[C@H](Cc1ccccc1)NC(=O)[C@H](CC(N)=O)NC(=O)c1ccc2ccccc2n1 [SQV, sequinavir] | 10 nM | 1240 ± 130 nM | 8.24 ± 0.15 nM | – | – | –
3 | Cc1[nH]c2ccc(-c3nnc(S(=O)(=O)C(C)C(=O)N4CCCCC4)o3)cc2c1C (stereo not drawn) [Compound 20, 2-((5-(2,3-Dimethyl-1H-indol-5-yl)-1,3,4-oxadiazol-2-yl)sulfonyl)-1-(piperidin-1-yl)propan-1-one] | – | – | – | did not | did not | not observed
